Molecular target: luciferase (Photinus pyralis, UniProt P08659)
Experiment: Reactivity of apyrase ATP-depleted nucleotide stocks with luciferase (background signal)
Assay type: biochemical
Description: ARNs were investigated as a source of background signal. There are two possible sources of background resulting from ARNs: (1) residual ATP contamination from the insufficient purification, and (2) the potential for these nucleotides to be accepted as substrates by luciferase. While ATP contamination can be removed, the kinetics of a nucleotide to react with luciferase is intrinsic to the molecule and thus much more difficult to manipulate. Apyrase was used to deplete nucleotide stocks of ATP in order to compare their reactivity with luciferase. […] However, dCp4A had high levels of ATP contamination.

Chain of luciferase (P08659 whole entry): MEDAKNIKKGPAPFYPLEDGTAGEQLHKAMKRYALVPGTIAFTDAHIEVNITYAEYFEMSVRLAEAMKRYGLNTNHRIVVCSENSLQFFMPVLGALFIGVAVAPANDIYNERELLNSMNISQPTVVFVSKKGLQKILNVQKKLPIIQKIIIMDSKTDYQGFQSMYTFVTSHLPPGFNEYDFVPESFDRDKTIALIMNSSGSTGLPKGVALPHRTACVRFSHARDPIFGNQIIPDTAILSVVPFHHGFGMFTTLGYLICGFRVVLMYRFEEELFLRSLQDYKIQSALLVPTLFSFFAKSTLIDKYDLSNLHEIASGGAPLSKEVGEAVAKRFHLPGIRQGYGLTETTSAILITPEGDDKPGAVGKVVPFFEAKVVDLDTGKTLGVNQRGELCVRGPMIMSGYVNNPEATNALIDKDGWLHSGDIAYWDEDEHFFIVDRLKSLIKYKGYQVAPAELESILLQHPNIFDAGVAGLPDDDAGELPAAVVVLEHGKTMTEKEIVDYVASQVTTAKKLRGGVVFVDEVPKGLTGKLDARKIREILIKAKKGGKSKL

Row | Structure (SMILES) | activity with luciferase compared with pyrimidine counterparts (dCp4A and dTp4A)
1 | Nc1ncnc2c1ncn2[C@@H]1O[C@H](COP(=O)(O)OP(=O)(O)OP(=O)(O)OP(=O)(O)OC[C@H]2O[C@@H](n3cnc4c(N)ncnc43)C[C@@H]2O)[C@@H](O)[C@H]1O [dAp4A, deoxyadenosine-5′-tetraphosphate-P4-5′-adenosine] | higher activity
2 | Nc1nc2c(ncn2[C@H]2C[C@H](O)[C@@H](COP(=O)(O)OP(=O)(O)OP(=O)(O)OP(=O)(O)OC[C@H]3O[C@@H](n4cnc5c(N)ncnc54)[C@H](O)[C@@H]3O)O2)c(=O)[nH]1 [dGp4A, deoxyguanosine-5′-tetraphosphate-P4-5′-adenosine] | higher activity
